According to patent US12180187B2, “1-phenyl-5-azinylpyrazolyl-3-oxyalkyl acids and their use for controlling unwanted plant growth” (BAYER AKTIENGESELLSCHAFT, priority 2019, dated 2024):

What was measured:
AMARE = assay: Pre-emergence action at 320 g/ha against AMARE; assay type: in vivo, Amaranthus retroflexus; settings: visual scoring after about 3 weeks vs untreated controls
Summary of the method: (§1)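 Sow seeds, cover with soil, spray soil surface (WP/EC, 0.5% additive, 600 l/ha water), hold in greenhouse ~3 wk, then rate % activity visually against untreated controls.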

PHBPU [1] = assay: Pre-emergence action at 320 g/ha against PHBPU; assay type: in vivo; settings: visual scoring after about 3 weeks vs untreated controls
Summary of the method: as §1

LOLRI = assay: Pre-emergence action at 320 g/ha against LOLRI; assay type: in vivo, Lolium rigidum; settings: visual scoring after about 3 weeks vs untreated controls
Summary of the method: as §1

ALOMY [2] = assay: Pre-emergence action at 320 g/ha against ALOMY; assay type: in vivo, Alopecurus myosuroides; settings: scored visually after about 3 weeks vs untreated controls (100% = plants have died)
Summary of the method: as §1

PHBPU [3] = assay: Post-emergence action at 320 g/ha against PHBPU; assay type: in vivo; settings: visual rating about 3 weeks after treatment vs untreated controls
Excerpt: (§2) Accordingly, the compounds of the invention have good herbicidal action against a broad spectrum of weed grasses and broad-leaved weeds and are therefore suitable for controlling unwanted vegetation by the post-emergence method. • b) Seeds of monocotyledonous and dicotyledonous weeds and crop plants are placed in sandy loam in plastic or organic planting pots, covered with soil and cultivated in a greenhouse under controlled growth conditions. 2 to 3 weeks after sowing, the test plants are treated at the one-leaf stage. The compounds of the invention, formulated in the form of wettable powders (WP) or as emulsion concentrates (EC), are then sprayed onto the green parts of the plants as aqueous suspension or emulsion with addition of 0.5% additive at a water application rate of 600 l/ha (converted). After the test plants have been kept in the greenhouse under optimum growth conditions for about 3 weeks, the activity of the preparations is rated visually in comparison to untreated controls. For example, 100% activity=the plants have died, 0% activity=like control plants. Tables 39 to 49 below show the effects of selected compounds of the general formula (I) according to Tables 1 and 2 on various harmful plants and at an application rate corresponding to 320 g/ha, which were obtained by the experimental procedure mentioned above.

DIGSA [4] = assay: Pre-emergence action at 320 g/ha against DIGSA; assay type: in vivo, Digitaria sanguinalis; settings: visual scoring after about 3 weeks vs untreated controls
Summary of the method: as §1

STEME = assay: Pre-emergence action at 320 g/ha against STEME; assay type: in vivo, Stellaria media; settings: greenhouse, scored visually after about 3 weeks vs untreated controls, 100% = plants have died, 0% = like control plants
Excerpt: (§3) b) Seeds of monocotyledonous and dicotyledonous weed plants and crop plants are placed in plastic or organic planting pots and covered with soil. The compounds of the invention, formulated in the form of wettable powders (WP) or as emulsion concentrates (EC), are then applied onto the surface of the covering soil as aqueous suspension or emulsion with addition of 0.5% additive at a water application rate of 600 l/ha (converted). After the treatment, the pots are placed in a greenhouse and kept under good growth conditions for the trial plants. After about 3 weeks, the effect of the preparations is scored visually in comparison with untreated controls as percentages. For example, 100% activity=the plants have died, 0% activity=like control plants. Tables 13 to 26 below show the effects of selected compounds of the general formula (I) on various harmful plants and at an application rate corresponding to 320 g/ha, which were obtained by the experimental procedure mentioned above.

ALOMY [5] = assay: Post-emergence action against ALOMY, 320 g/ha; assay type: in vivo, Alopecurus myosuroides; settings: dosage 320 g/ha, visual rating about 3 weeks after treatment vs untreated controls (100% = plants died)
Summary of the method: (§4)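 Herbicidal effect is scored by eye about 3 weeks after a foliar spray and expressed as percent activity, with untreated plants as 0% and dead plants as 100%. Treatment is applied at the one-leaf stage of greenhouse-grown, soil-sown plants, at a water rate of 600 l/ha containing 0.5% additive.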

AVEFA [6] = assay: Pre-emergence action at 320 g/ha against AVEFA; assay type: in vivo; settings: visual scoring after about 3 weeks vs untreated controls
Summary of the method: as §1

VIOTR [7] = assay: Pre-emergence action at 320 g/ha against VIOTR; assay type: in vivo, Viola tricolor; settings: dosage 320 g/ha
Summary of the method: as §1

ABUTH = assay: Post-emergence action at 320 g/ha against ABUTH; assay type: in vivo, Abutilon theophrasti; settings: visual rating about 3 weeks after treatment vs untreated controls
Excerpt: as §2

HORMU [8] = assay: Post-emergence action at 320 g/ha against HORMU; assay type: in vivo, Hordeum murinum; settings: visual rating about 3 weeks after treatment vs untreated controls
Excerpt: as §2

VERPE = assay: Pre-emergence action at 320 g/ha against VERPE; assay type: in vivo, Veronica persica; settings: visual scoring after about 3 weeks vs untreated controls
Summary of the method: as §1

SETVI [9] = assay: Post-emergence action at 320 g/ha against SETVI; assay type: in vivo, Setaria viridis; settings: visual rating about 3 weeks after treatment vs untreated controls
Summary of the method: as §4

POLCO [10] = assay: Pre-emergence action at 320 g/ha against POLCO; assay type: in vivo, Fallopia convolvulus (Polygonum convolvulus); settings: visual scoring after about 3 weeks vs untreated controls
Summary of the method: as §1

ECHCG = assay: Post-emergence action at 320 g/ha against ECHCG; assay type: in vivo, Echinochloa crus-galli; settings: dosage 320 g/ha, visual rating about 3 weeks after treatment vs untreated controls (100% = plants died)
Summary of the method: as §4

ECHGC = assay: Pre-emergence action at 320 g/ha against ECHGC; assay type: in vivo, Echinochloa crus-galli; settings: visual scoring after about 3 weeks vs untreated controls
Summary of the method: as §1

HORMU [11] = assay: Pre-emergence action at 320 g/ha against HORMU; assay type: in vivo, Hordeum murinum; settings: greenhouse, scored visually after about 3 weeks vs untreated controls, 100% = plants have died, 0% = like control plants
Excerpt: as §3

SETVI [12] = assay: Pre-emergence action at 320 g/ha against SETVI; assay type: in vivo, Setaria viridis; settings: visual scoring after about 3 weeks vs untreated controls
Summary of the method: as §1

DIGSA [13] = assay: Post-emergence action at 320 g/ha against DIGSA; assay type: in vivo, Digitaria sanguinalis; settings: dosage 320 g/ha, visual rating about 3 weeks after treatment vs untreated controls (100% = plants died)
Summary of the method: as §4

POLCO [14] = assay: Post-emergence action at 320 g/ha against POLCO; assay type: in vivo, Fallopia convolvulus (Polygonum convolvulus); settings: visual rating about 3 weeks after treatment vs untreated controls
Excerpt: as §2

MATIN = assay: Pre-emergence action at 320 g/ha against MATIN; assay type: in vivo, Tripleurospermum inodorum (Matricaria inodora); settings: visual scoring after about 3 weeks vs untreated controls
Summary of the method: as §1

VIOTR [15] = assay: Post-emergence action at 320 g/ha against VIOTR; assay type: in vivo, Viola tricolor; settings: visual rating about 3 weeks after treatment vs untreated controls
Excerpt: as §2

AVEFA [16] = assay: Post-emergence action at 320 g/ha against AVEFA; assay type: in vivo; settings: visual rating about 3 weeks after treatment vs untreated controls
Summary of the method: as §4

CC(C)OC(=O)COc1nn(-c2ccccc2F)c(-c2ccc(F)nc2)c1Br [VII-005]
Pre-emergence action against AMARE in % (AMARE): 100% | Pre-emergence action against PHBPU in % (PHBPU [1]): 80% | Pre-emergence action against LOLRI in % (LOLRI): 100% | Pre-emergence action at 320 g/ha against ALOMY in % (ALOMY [2]): 100% | Post-emergence action against PHBPU in % (PHBPU [3]): 90% | Pre-emergence action against DIGSA in % (DIGSA [4]): 100% | Pre-emergence action at 320 g/ha against STEME in % (STEME): 90% | Post-emergence action against ALOMY (ALOMY [5]): 100% | Pre-emergence action against AVEFA in % (AVEFA [6]): 90% | Pre-emergence action against VIOTR in % (VIOTR [7]): 100% | Post-emergence action against ABUTH in % (ABUTH): 80% | Post-emergence action against HORMU in % (HORMU [8]): 90% | Pre-emergence action against VERPE in % (VERPE): 100% | Post-emergence action against SETVI in % (SETVI [9]): 80% | Pre-emergence action against POLCO in % (POLCO [10]): 100% | Post-emergence action at 320 g/ha against ECHCG in % (ECHCG): 90% | Pre-emergence action against ECHGC in % (ECHGC): 100% | Pre-emergence action at 320 g/ha against HORMU in % (HORMU [11]): 100% | Pre-emergence action against SETVI in % (SETVI [12]): 100% | Post-emergence action at 320 g/ha against DIGSA in % (DIGSA [13]): 90% | Post-emergence action against POLCO in % (POLCO [14]): 80% | Pre-emergence action against MATIN in % (MATIN): 100% | Post-emergence action against VIOTR in % (VIOTR [15]): 100% | Post-emergence action against AVEFA in % (AVEFA [16]): 100%
